In patent publication US20220401385A1, “Combination Therapy Based on PD-1 Signaling Inhibitors” (Kyoto University, priority 2019, published 2022):
Entries after “also recorded” stand apart in the source; their conditions may differ.

How the values were obtained:
CD44 high CD8+ T cells = assay: Seahorse OCR, ATP production and SRC in vitro, CD44 high cells; assay type: cell-based, mice; conditions: SPD 0.2 μM
Protocol: FIG. 4 CD8^+ T cells were isolated from the spleen of mice without tumor inoculation, and further isolated into CD44^+ (CD44 high) and CD44^− (CD44 low) cell populations. a) CD44 low cells were simulated with CD3/CD28 antibody beads and SPD (0.2 μM). After 30 minutes, 1 hour, 2 hours and 72 hours, OCR was measured with a Seahorse analyzer. b) At the same time, total ATP production and glycolytic pathway-derived or mitochondrial activity-derived ATP production were calculated at 30-minute, 1-hour and 2-hour. c) CD44 low cells (2×10^5 cells) were stimulated with CD3/CD28 antibody beads and SPD (0.2 μM). After 24 hours, cell proliferation was examined by means of 3H uptake. d) Spare respiratory capacity (SRC) was calculated from the OCR measurement after 72 hours in a), and results with and without SPD were compared. e) CD44 low cells were stimulated with CD3/CD28 antibody beads and SPD (0.2 μM). After 24 hours, frequencies between apoptotic and viable cells were calculated by PI and Annexin staining. f-j) CD44 high cells were analyzed under the same conditions and by the same methods as described in a-e) above. As regards statistical analysis, t-test was used for comparison of two groups, and ANOVA was used for comparison of three or more groups. * p<0.05, ** p<0.01, *** p<0.001, **** p<0.0001.
Oxygen consumption rates were measured using an XF96 Extracellular Flux Analyzer (Seahorse Bioscience). CD8^+ T cells (4×10^5) per well were seeded in a determined XF96 plate. The four chemical modulators of mitochondrial oxidative phosphorylation, which came with an XF Cell Mito Stress Test Kit (Seahorse Bioscience), were added to the module sequentially. In brief, basal OCR measurement was performed […] sequential addition of oligomycin, FCCP, and rotenone/antimycin A. SRC and ATP production rates were calculated by the following formulas:
SRC (pmo; 02/min)=OCRmaximal−OCRbasal
mitoATP (pmol ATP/min)=(OCRbasal−OCRoligo)×5.5.

CD44 low CD8+ T cells = assay: Observation of mitochondria under electron microscope, CD44 low cells; assay type: cell-based, mice; conditions: SPD 0.2 μM, 1 hour
Protocol: FIG. 5 CD8^+ T cells were isolated from the spleen of mice without tumor inoculation, and further isolated into CD44^+ (CD44 high) and CD44^− (CD44 low) cell populations. a) CD44 low cells were simulated with CD3/CD28 antibody beads and SPD (0.2 μM). […] Protein expression levels after 1 hour and 2 hours were confirmed by western blotting with the respective indicated antibodies. As regards statistical analysis, t-test was used for comparison of two groups. * p<0.05, ** p<0.01, *** p<0.001, **** p<0.0001.
CD8^+ T cells (2×10^5) were stimulated with 0.2 μM spermidine for 1 hour. Then, cells were harvested, embedded in Ipgell (GenoStaff) and fixed with 4% paraformaldehyde and 2% glutaraldehyde. Images were taken with a transmission electron microscope (TEM). Mitochondrial size was determined with ImageJ software. As regards mitochondrial number, average numbers in single cell were determined with Prism software. Blind testing was used for observation and analysis of mitochondria.

CD8+ T cells [1] = assay: Proliferation (3H uptake) of spleen CD8+ T cells of treated aged mice; assay type: in vivo; conditions: 56-week old mice; SPD combination group; 20 hours CD3/CD28, 3H uptake
Protocol: (§1) FIG. 7 MC38 cells (5×10^5) were intradermally inoculated into 56-week old mice, which were treated along with the treatment schedule described in FIG. 1. PD-L1 antibody (2 mg/kg) and SPD (2 mg/kg) were used. a) Tumor growth curve and survival curve are shown. b) The frequency of CD8^+ T cells among lymphocytes infiltrating into tumor (in CD45^+ gate) and the absolute number of CD8^+ T cells per mg tumor 13 days after tumor inoculation are shown. c) CD8^+ T cells were isolated from spleen cells on the same schedule as b) and cultured for 20 hours under the stimulation with CD3/CD28. Cell proliferation was examined by means of ^3H uptake. d) CD8^+ T cells were isolated from draining lymph nodes on the same schedule as b) and glycolytic pathway-derived or mitochondrial metabolism-derived ATP production was calculated by Seahorse. e) Spare respiratory capacity (SRC) was also calculated in the experiment (d).
It is known from mouse model experiments that the effect of PD-1 inhibitory antibody therapy decreases in aged mice due to their decreased immunity. […] CD8^+ T cells were isolated from draining lymph nodes 13 days after tumor inoculation and glycolytic pathway-derived or mitochondrial metabolism-derived ATP production was calculated by Seahorse. Spare respiratory capacity (SRC) was also calculated. […]

CD8+ T cells [2] = assay: Seahorse ATP production and SRC of draining lymph node CD8+ T cells of treated aged mice; assay type: in vivo; conditions: 56-week old mice, SPD combination treatment group
Protocol: as §1
Oxygen consumption rates were measured using an XF96 Extracellular Flux Analyzer (Seahorse Bioscience). CD8^+ T cells (4×10^5) per well were seeded in a determined XF96 plate. […] In brief, basal OCR measurement was performed […] sequential addition of oligomycin, FCCP, and rotenone/antimycin A. SRC and ATP production rates were calculated by the following formulas: […]

## NCCCCNCCCN [SPD, spermidine]
CD44 high CD8+ T cells; 1 to 2 hours after stimulation
  ATP production via glycolysis (glyco ATP): not enhanced
  ATP production via mitochondria (mito ATP): not enhanced
CD44 high CD8+ T cells; 30 minutes after stimulation
  ATP production: tendency to be enhanced
  mitochondrial oxygen consumption (OCR): increased
CD44 high CD8+ T cells; 1 hour and 2 hours after stimulation
  mitochondrial oxygen consumption (OCR): decreased
CD44 high CD8+ T cells; 72 hours
  spare respiratory capacity (SRC): enhanced; also recorded: significantly high
CD44 high CD8+ T cells; 72 hours after stimulation
  mitochondrial oxygen consumption (OCR): increased again
CD44 low CD8+ T cells
  mitochondrial size: no change
  structure of cristae: denser structures of cristae
CD8+ T cells [1]
  proliferative activation of spleen CD8+ T cells: enhanced
CD8+ T cells [2]
  SRCs of CD8+ T cells: increased
  production of ATP, mitochondrial metabolism-dependent: increased
